Source: patent US10597388B2, “Pyridazinone herbicides” (FMC CORPORATION, priority 2014, dated 2020)

Key:
Experiment in all cases: Test D controlled growth environment herbicide test, pre- and postemergence
Type in all cases: in vivo
[1] = system: chamomile (scentless chamomile, Matricaria inodora)
Procedure, shortened: (§1)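 Rating is visual, 0–100 scale (100 = complete control), made against untreated plants 14–21 d after treatment in controlled growth conditions. Postemergence sprays went onto 1- to 4-leaf plants in peat medium; preemergence sprays onto silt loam after sowing; formulation included a surfactant.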

[2] = system: wheat, spring (spring wheat, Triticum aestivum)
Procedure, shortened: as §1

[3] = system: canarygrass (Phalaris minor)
Procedure, shortened: as §1

[4] = system: foxtail, green (green foxtail, Setaria viridis)
Procedure, shortened: as §1

[5] = system: radish, wild (wild radish, Raphanus raphanistrum)
Procedure, shortened: as §1

[6] = system: oat, wild (wild oat, Avena fatua)
Procedure, shortened: as §1

[7] = system: pigweed (Amaranthus retroflexus)
Procedure, shortened: as §1

[8] = system: barley, spring (spring barley, Hordeum vulgare)
Procedure, shortened: as §1

[9] = system: field violet (Viola arvensis)
Procedure, shortened: as §1

[10] = system: buckwheat, wild (wild buckwheat, Polygonum convolvulus)
Procedure, shortened: as §1

[11] = system: blackgrass (Alopecurus myosuroides)
Procedure, shortened: as §1

[12] = system: ryegrass, Italian (Italian ryegrass, Lolium multiflorum)
Procedure, shortened: as §1

[13] = system: bluegrass (annual bluegrass, Poa annua)
Procedure, shortened: as §1

[14] = Postemergence, 31 g ai/ha, scale 0 to 100 (0 no effect, 100 complete control)
[15] = Postemergence, 125 g ai/ha, visual rating on scale 0 (no effect) to 100 (complete control), 14 to 21 d
[16] = Postemergence, 250 g ai/ha, scale 0 to 100 (0 no effect, 100 complete control)
[17] = Preemergence, 62 g ai/ha, scale 0 to 100 (0 no effect, 100 complete control)
[18] = Preemergence, 125 g ai/ha, scale 0 to 100 (0 no effect, 100 complete control)
[19] = Preemergence, 250 g ai/ha, scale 0 to 100 (0 no effect, 100 complete control)
[20] = postemergence, 62 g ai/ha, scale 0 to 100, 0 no effect, 100 complete control

CCC(=O)Oc1c(C)nn(C)c(=O)c1-c1c(C)sc2c(C)cc(C)cc12 [Compound 28]
Chamomile plant response rating [1, 14]: 85
Plant response rating, Chamomile [1, 15]: 90
Plant response rating, Chamomile [1, 16]: 95
Plant response rating (scale of 0 to 100), Chamomile ([1]; Preemergence, 31 g ai/ha): 100
Plant response rating, Chamomile [1, 17]: 95
Plant response rating, Chamomile [1, 18]: 100
Plant response rating, Chamomile [1, 19]: 100
Plant response rating, Chamomile [1, 20]: 90
Wheat, Spring plant response rating [2, 14]: 0
Plant response rating, Wheat, Spring [2, 15]: 10
Plant response rating, Wheat, Spring [2, 16]: 20
Plant response rating (scale of 0 to 100), Wheat, Spring ([2]; Preemergence, 31 g ai/ha): 0
Plant response rating, Wheat, Spring [2, 17]: 0
Plant response rating, Wheat, Spring [2, 18]: 5
Plant response rating, Wheat, Spring [2, 19]: 25
Plant response rating, Wheat, Spring [2, 20]: 5
Canarygrass plant response rating [3, 14]: 75
Plant response rating, Canarygrass [3, 15]: 80
Plant response rating, Canarygrass [3, 16]: 85
Plant response rating (scale of 0 to 100), Canarygrass ([3]; Preemergence, 31 g ai/ha): 85
Plant response rating, Canarygrass [3, 17]: 85
Plant response rating, Canarygrass [3, 18]: 95
Plant response rating, Canarygrass [3, 19]: 95
Plant response rating, Canarygrass [3, 20]: 75
Foxtail, Green plant response rating [4, 14]: 65
Plant response rating, Foxtail, Green [4, 15]: 85
Plant response rating, Foxtail, Green [4, 16]: 90
Plant response rating (scale of 0 to 100), Foxtail, Green ([4]; Preemergence, 31 g ai/ha): 70
Plant response rating, Foxtail, Green [4, 17]: 80
Plant response rating, Foxtail, Green [4, 18]: 100
Plant response rating, Foxtail, Green [4, 19]: 100
Plant response rating, Foxtail, Green [4, 20]: 75
Radish, Wild plant response rating [5, 14]: 85
Plant response rating, Radish, Wild [5, 15]: 85
Plant response rating, Radish, Wild [5, 16]: 95
Plant response rating (scale of 0 to 100), Radish, Wild ([5]; Preemergence, 31 g ai/ha): 0
Plant response rating, Radish, Wild [5, 17]: 0
Plant response rating, Radish, Wild [5, 18]: 35
Plant response rating, Radish, Wild [5, 19]: 30
Plant response rating, Radish, Wild [5, 20]: 100
Oat, Wild plant response rating [6, 14]: 75
Plant response rating, Oat, Wild [6, 15]: 90
Plant response rating, Oat, Wild [6, 16]: 95
Plant response rating (scale of 0 to 100), Oat, Wild ([6]; Preemergence, 31 g ai/ha): 85
Plant response rating, Oat, Wild [6, 17]: 85
Plant response rating, Oat, Wild [6, 18]: 90
Plant response rating, Oat, Wild [6, 19]: 100
Plant response rating, Oat, Wild [6, 20]: 85
Pigweed plant response rating [7, 14]: 75
Plant response rating, Pigweed [7, 15]: 100
Plant response rating, Pigweed [7, 16]: 90
Plant response rating (scale of 0 to 100), Pigweed ([7]; Preemergence, 31 g ai/ha): 90
Plant response rating, Pigweed [7, 17]: 100
Plant response rating, Pigweed [7, 18]: 100
Plant response rating, Pigweed [7, 19]: 100
Plant response rating, Pigweed [7, 20]: 90
Plant response rating, Barley, Spring [8, 14]: 5
Plant response rating, Barley, Spring [8, 15]: 5
Plant response rating, Barley, Spring [8, 16]: 10
Plant response rating (scale of 0 to 100), Barley, Spring ([8]; Preemergence, 31 g ai/ha): 0
Plant response rating, Barley, Spring [8, 17]: 0
Plant response rating, Barley, Spring [8, 18]: 0
Barley, Spring plant response rating [8, 19]: 0
Plant response rating, Barley, Spring [8, 20]: 5
Field Violet plant response rating [9, 14]: 80
Plant response rating, Field Violet [9, 15]: 85
Plant response rating, Field Violet [9, 16]: 90
Plant response rating (scale of 0 to 100), Field Violet ([9]; Preemergence, 31 g ai/ha): 75
Plant response rating, Field Violet [9, 17]: 85
Plant response rating, Field Violet [9, 18]: 100
Plant response rating, Field Violet [9, 19]: 100
Plant response rating, Field Violet [9, 20]: 75
Buckwheat, Wild plant response rating [10, 14]: 100
Plant response rating, Buckwheat, Wild [10, 15]: 100
Plant response rating, Buckwheat, Wild [10, 16]: 100
Plant response rating (scale of 0 to 100), Buckwheat, Wild ([10]; Preemergence, 31 g ai/ha): 0
Plant response rating, Buckwheat, Wild [10, 17]: 0
Plant response rating, Buckwheat, Wild [10, 18]: 20
Plant response rating, Buckwheat, Wild [10, 19]: 100
Plant response rating, Buckwheat, Wild [10, 20]: 100
Blackgrass plant response rating [11, 14]: 75
Plant response rating, Blackgrass [11, 15]: 85
Plant response rating, Blackgrass [11, 16]: 85
Plant response rating (scale of 0 to 100), Blackgrass ([11]; Preemergence, 31 g ai/ha): 85
Plant response rating, Blackgrass [11, 17]: 85
Plant response rating, Blackgrass [11, 18]: 85
Blackgrass plant response rating [11, 19]: 95
Plant response rating, Blackgrass [11, 20]: 80
Ryegrass, Italian plant response rating [12, 14]: 75
Plant response rating, Ryegrass, Italian [12, 15]: 80
Plant response rating, Ryegrass, Italian [12, 16]: 85
Plant response rating (scale of 0 to 100), Ryegrass, Italian ([12]; Preemergence, 31 g ai/ha): 90
Plant response rating, Ryegrass, Italian [12, 17]: 95
Plant response rating, Ryegrass, Italian [12, 18]: 100
Plant response rating, Ryegrass, Italian [12, 19]: 100
Plant response rating, Ryegrass, Italian [12, 20]: 80
Bluegrass plant response rating [13, 14]: 20
Plant response rating, Bluegrass [13, 15]: 35
Plant response rating, Bluegrass [13, 16]: 50
Plant response rating (scale of 0 to 100), Bluegrass ([13]; Preemergence, 31 g ai/ha): 30
Plant response rating, Bluegrass [13, 17]: 45
Plant response rating, Bluegrass [13, 18]: 65
Bluegrass plant response rating [13, 19]: 75
Plant response rating, Bluegrass [13, 20]: 30
